The results in this text go back to patent US10287269B2, “Pyrazolyl pyrimidinone compounds as PDE2 inhibitors” (Merck Sharp & Dohme Corp., priority 2015, dated 2019).

The target in this experiment is T1, human PDE2A1 (Homo sapiens, UniProt O00408).
T1 construct: GST; purchased BPS Bioscience (San Diego, Calif.) 60020; host or cells: insect cells
Put plainly: PDE2 IMAP FP inhibition assay, human enzyme (PDE selectivity panel format). The format is biochemical. The gist of the method: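 GST-tagged human PDE2A1 from insect cells, run at room temperature in 10 mM Tris pH 7.2, 10 mM MgCl2, 1 mM DTT with 50 nM FAM-cAMP plus 1000 nM cGMP for 60 min. IMAP fluorescence polarization read-out; apparent Ki derived using apparent KM 10,000 nM.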

[1] abbreviates: Lab B, read-out: Human PDE2 Ki (nM) Lab B.
The mark [2] stands for this setting: Lab A, read-out: Human PDE2 Ki (nM) Lab A.

Like-named read-outs stand apart in the source and are kept apart here.

T1 sequence (O00408 1-920 isoform O00408-2): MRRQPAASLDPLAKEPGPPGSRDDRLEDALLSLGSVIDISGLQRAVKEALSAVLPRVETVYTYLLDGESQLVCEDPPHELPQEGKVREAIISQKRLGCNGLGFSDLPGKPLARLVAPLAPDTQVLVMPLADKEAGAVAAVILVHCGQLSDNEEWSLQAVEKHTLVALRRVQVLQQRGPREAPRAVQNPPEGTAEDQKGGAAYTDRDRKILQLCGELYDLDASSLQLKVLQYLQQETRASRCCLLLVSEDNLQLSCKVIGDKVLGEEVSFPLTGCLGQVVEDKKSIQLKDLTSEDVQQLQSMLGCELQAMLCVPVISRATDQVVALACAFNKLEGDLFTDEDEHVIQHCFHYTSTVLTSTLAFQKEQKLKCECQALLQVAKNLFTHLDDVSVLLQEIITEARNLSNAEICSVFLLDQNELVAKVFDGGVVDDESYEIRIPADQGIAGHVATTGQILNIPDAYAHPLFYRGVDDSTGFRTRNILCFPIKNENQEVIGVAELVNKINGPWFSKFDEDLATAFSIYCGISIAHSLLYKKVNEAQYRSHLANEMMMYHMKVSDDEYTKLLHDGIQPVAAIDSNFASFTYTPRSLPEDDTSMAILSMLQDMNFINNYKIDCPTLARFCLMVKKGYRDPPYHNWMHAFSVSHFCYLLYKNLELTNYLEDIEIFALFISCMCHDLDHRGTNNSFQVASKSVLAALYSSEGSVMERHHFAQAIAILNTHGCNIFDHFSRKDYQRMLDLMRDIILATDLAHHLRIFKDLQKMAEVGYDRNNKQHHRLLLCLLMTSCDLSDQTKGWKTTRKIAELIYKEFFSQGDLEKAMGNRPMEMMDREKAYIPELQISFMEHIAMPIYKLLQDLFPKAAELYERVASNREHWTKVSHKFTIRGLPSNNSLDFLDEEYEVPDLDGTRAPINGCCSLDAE

Consider `Cc1nc(-c2cnn(C(C)c3ccc(OC(F)(F)F)cc3)c2)cc(=O)[nH]1` (single isomer, unassigned) [Example 127, (R)- or (S)-2-methyl-6-(1-(1-(4-(trifluoromethoxy)phenyl)ethyl)-1H-pyrazol-4-yl)pyrimidin-4(3H)-one], for which, under setting [1], the Ki was 103 nM.
For `Cc1nc(-c2cnn(C(C)c3ccc(S(F)(F)(F)(F)F)cc3)c2)cc(=O)[nH]1` (single isomer, unassigned) [Example 62, (R)- or (S)-2-methyl-6-(1-(1-(4-(pentafluorosulfanyl)phenyl)ethyl)-1H-pyrazol-4-yl)pyrimidin-4(3H)-one], the inhibition constant Ki under setting [1] was determined as 86.5 nM.
Consider `CCc1ccc(C(C)n2cc(-c3cc(=O)[nH]c(C)n3)cn2)c(Cl)c1` (single isomer, unassigned) [Example 99, (R)- or (S)-6-(1-(1-(2-chloro-4-ethylphenyl)ethyl)-1H-pyrazol-4-yl)-2-methylpyrimidin-4(3H)-one], for which, under setting [2], the Ki is 10.4 nM.
The same measure, in the same setting: in the case of `CCC(c1ccc(C(F)(F)F)cc1F)n1cc(-c2cc(=O)[nH]c(C)n2)cn1` (centres unmarked) [Example 33, 6-(1-(1-(2-fluoro-4-(trifluoromethyl)phenyl)propyl)-1H-pyrazol-4-yl)-2-methylpyrimidin-4(3H)-one] it was 32 nM.
Take `COc1ccc(Cc2nc(-c3cnn(C(C)c4ccc(C(F)(F)F)cc4F)c3)cc(=O)[nH]2)cc1` (single isomer, unassigned) [Example 138, (R)- or (S)-6-(1-(1-(2-fluoro-4-(trifluoromethyl)phenyl)ethyl)-1H-pyrazol-4-yl)-2-(4-methoxybenzyl)pyrimidin-4(3H)-one]: the Ki under setting [2] turned out to be 7.1 nM and the Ki under setting [1] was 5.1 nM.
For the compound `Cc1nc(-c2cnn(C3(c4ccc(C(F)(F)F)cc4F)CCC3)c2)cc(=O)[nH]1` [Example 37, 6-(1-(1-(2-fluoro-4-(trifluoromethyl)phenyl)cyclobutyl)-1H-pyrazol-4-yl)-2-methylpyrimidin-4(3H)-one], the Ki under setting [2] is 7.9 nM.
For the compound `Cc1nc(-n2cc(C(C)c3ccc(C(F)(F)F)cc3F)cn2)cc(=O)[nH]1` (single isomer, unassigned) [Example 52, (R)- or (S)-6-(4-(1-(2-fluoro-4-(trifluoromethyl)phenyl)ethyl)-1H-pyrazol-1-yl)-2-methylpyrimidin-4(3H)-one], the Ki by setting is: under setting [2], 12.3 nM; under setting [1], 4.9 nM.
Consider `Cc1nc(-c2cnn(C(c3ccc(C(F)(F)F)cc3F)C(C)C)c2)cc(=O)[nH]1` (centres unmarked) [Example 34, 6-(1-(1-(2-fluoro-4-(trifluoromethyl)phenyl)-2-methylpropyl)-1H-pyrazol-4-yl)-2-methylpynmidin-4(3H)-one], for which the inhibition constant Ki under setting [2] came to 44.6 nM.
On the same count and under the same terms, in the case of `COc1ccc(Cc2nc(-c3cnn(C(C)c4ccc(C(F)(F)F)cc4F)c3)cc(=O)[nH]2)cc1F` (single isomer, unassigned) [Example 147, (S)- or (R)-6-(1-(1-(2-fluoro-4-(trifluoromethyl)phenyl)ethyl)-1H-pyrazol-4-yl)-2-(3-fluoro-4-methoxybenzyl)pyrimidin-4(3H)-one] it was 3.3 nM; in that of `COc1cc(Cc2nc(-c3cnn(C(C)c4ccc(C(F)(F)F)cc4F)c3)cc(=O)[nH]2)ccc1F` (single isomer, unassigned) [Example 142, (R)- or (S)-2-(4-fluoro-3-methoxybenzyl)-6-(1-(1-(2-fluoro-4-(trifluoromethyl)phenyl)ethyl)-1H-pyrazol-4-yl)pyrimidin-4(3H)-one], 3.5 nM.
As for `Cc1nc(-n2ccc([C@H](C)c3ccc(C(F)(F)F)cc3)n2)cc(=O)[nH]1` (single isomer, unassigned) [Example 5], the Ki under setting [1] is 174 nM.
Regarding `CCc1ccc(C(C)n2cc(-c3cc(=O)[nH]c(C)n3)cn2)c(F)c1` (single isomer, unassigned) [Example 101, (R)- or (S)-6-(1-(1-(4-ethyl-2-fluorophenyl)ethyl)-1H-pyrazol-4-yl)-2-methylpyrimidin-4(3H)-one], the Ki under setting [2] is 38.5 nM.
In the case of `Cc1nc(-c2cnn(C(C)c3ccc(S(F)(F)(F)(F)F)cc3)c2)cc(=O)[nH]1` (single isomer, unassigned) [Example 63, (S)- or (R)-2-methyl-6-(1-(1-(4-(pentafluorosulfanyl)phenyl)ethyl)-1H-pyrazol-4-yl)pyrimidin-4(3H)-one], the Ki under setting [1] came to 46.5 nM.
On to `COc1cccc(Cc2nc(-c3cnn(C(C)c4ccc(C(F)(F)F)cc4F)c3)cc(=O)[nH]2)c1` (single isomer, unassigned) [Example 140, (R)- or (S)-6-(1-(1-(2-fluoro-4-(trifluoromethyl)phenyl)ethyl)-1H-pyrazol-4-yl)-2-(3-methoxybenzyl)pyrimidin-4(3H)-one], for which the Ki under setting [2] turned out to be 2.6 nM.
In the case of `COc1ccc(Cc2nc(-c3cnn(C(C)c4ccc(C(F)(F)F)cc4F)c3)cc(=O)[nH]2)cc1OC` (single isomer, unassigned) [Example 67], the Ki was 0.2 nM under setting [2] and 0.1 nM under setting [1].
For `COc1ccc(Cc2nc(-c3cnn(C(C)c4ccc(C(F)(F)F)cc4F)c3)cc(=O)[nH]2)cc1` (single isomer, unassigned) [Example 139, (S)- or (R)-6-(1-(1-(2-fluoro-4-(trifluoromethyl)phenyl)ethyl)-1H-pyrazol-4-yl)-2-(4-methoxybenzyl)pyrimidin-4(3H)-one], in that order: 41.6 nM and 24.5 nM.
With `Cc1ccc(C(C)n2cc(-c3cc(=O)[nH]c(C)n3)cn2)c(Cl)c1` (single isomer, unassigned) [Example 148, (R)- or (S)-6-(1-(1-(2-chloro-4-methylphenyl)ethyl)-1H-pyrazol-4-yl)-2-methylpyrimidin-4(3H)-one], under setting [2], the Ki was 61 nM.
Take `COc1cc(Cc2nc(-c3cnn(C(C)c4ccc(C(F)(F)F)cc4F)c3)cc(=O)[nH]2)ccc1F` (single isomer, unassigned) [Example 143, (S)- or (R)-2-(4-fluoro-3-methoxybenzyl)-6-(1-(1-(2-fluoro-4-(trifluoromethyl)phenyl)ethyl)-1H-pyrazol-4-yl)pyrimidin-4(3H)-one]: the Ki under setting [2] came to 27.9 nM.
Still for that read-out and setting: then `COc1ccc(Cc2nc(-c3cnn(C(C)c4ccc(C(F)(F)F)cc4F)c3)cc(=O)[nH]2)cc1F` (single isomer, unassigned) [Example 146, (R)- or (S)-6-(1-(1-(2-fluoro-4-(trifluoromethyl)phenyl)ethyl)-1H-pyrazol-4-yl)-2-(3-fluoro-4-methoxybenzyl)pyrimidin-4(3H)-one], with 31.2 nM.
`COc1ccc(Cc2nc(-c3cnn(C(C)c4ccc(C(F)(F)F)cc4)c3)cc(=O)[nH]2)cc1OC` (single isomer, unassigned) [Example 61, (S)- or (R)-2-(3,4-dimethoxybenzyl)-6-(1-(1-(4-(trifluoromethyl)phenyl)ethyl)-1H-pyrazol-4-yl)pyrimidin-4(3H)-one]: the Ki reads like this: under setting [2], 2.4 nM; under setting [1], 0.9 nM.
For `COc1cc(C(F)(F)F)ccc1[C@@H](C)n1cc(-c2cc(=O)[nH]c(C)n2)cn1` (single isomer, unassigned) [Example 2], in that order: 41.5 nM and 17.1 nM.
For the compound `CC(c1ccc(C(F)(F)F)cc1F)n1cc(-c2cc(=O)[nH]c(C3CC3)n2)cn1` (centres unmarked) [Example 10], the Ki under setting [2] was 19.5 nM.
On to `CCC(c1ccc(C(F)(F)F)cc1)c1cnn(-c2cc(=O)[nH]c(C)n2)c1` (centres unmarked) [Example 129, 2-methyl-6-(4-(1-(4-(trifluoromethyl)phenyl)propyl)-1H-pyrazol-1-yl)pyrimidin-4(3H)-one], for which, under setting [1], the Ki was determined as 141 nM.
As for `Cc1nc(-n2cc(Cc3ccc(C(F)(F)F)cc3)cn2)cc(=O)[nH]1` [Example 48, 2-methyl-6-(4-(4-(trifluoromethyl)benzyl)-1H-pyrazol-1-yl)pyrimidin-4(3H)-one], under setting [1], the Ki stood at 219 nM.
Take `CCCC(c1ccc(C(F)(F)F)cc1)n1cc(-c2cc(=O)[nH]c(C)n2)cn1` (centres unmarked) [Example 154, 2-methyl-6-(1-(1-(4-(trifluoromethyl)phenyl)butyl)-1H-pyrazol-4-yl)pynmidin-4(3H)-one]: the Ki under setting [1] turned out to be 265 nM.
Still for that read-out and setting: in the case of `Cc1nc(-n2cc([C@](C)(O)c3ccc(C(F)(F)F)cc3F)cn2)cc(=O)[nH]1` (single isomer, unassigned) [Example 15] it was 11.7 nM.
`COc1ccc(Cc2nc(-n3cc(C(C)c4ccc(C(F)(F)F)cc4)cn3)cc(=O)[nH]2)cc1OC` (centres unmarked) [Example 137, 2-(3,4-dimethoxybenzyl)-6-(4-(1-(4-(trifluoromethyl)phenyl)ethyl)-1H-pyrazol-1-yl)pyrimidin-4(3H)-one]: the Ki was 1 nM under setting [2] and 0.4 nM under setting [1].
As to `Cc1nc(-n2cc(C(C)c3ccc(C4(C)CC4)cc3)cn2)cc(=O)[nH]1` (centres unmarked) [Example 40, 2-methyl-6-(4-(1-(4-(1-methylcyclopropyl)phenyl)ethyl)-1H-pyrazol-1-yl)pyrimidin-4(3H)-one], the Ki under setting [1] worked out at 197 nM.
The same measure, in the same setting: then `Cc1nc(-n2cc(C(C)c3ccc(C(F)(F)F)cc3F)cn2)cc(=O)[nH]1` (single isomer, unassigned) [Example 53, (S)- or (R)-6-(4-(1-(2-fluoro-4-(trifluoromethyl)phenyl)ethyl)-1H-pyrazol-1-yl)-2-methylpyrimidin-4(3H)-one], with 33.2 nM.
Consider `Cc1nc(-n2cc([C@H](CO)c3ccc(C(F)(F)F)cc3F)cn2)cc(=O)[nH]1` (single isomer, unassigned) [Example 20], for which the Ki under setting [2] came to 32.3 nM and the Ki under setting [1] came out at 16.8 nM.
For `Cc1nc(-c2cc([C@H](C)c3ccc(C(F)(F)F)cc3)[nH]n2)cc(=O)[nH]1` (single isomer, unassigned) [Example 24], the Ki under setting [1] was determined as 81 nM.
As for `Cc1nc(-n2cc(C(c3ccc(C(F)(F)F)cc3)C(C)C)cn2)cc(=O)[nH]1` (centres unmarked) [Example 130], the Ki under setting [1] was 87.6 nM.
The same measure, in the same setting: then `Cc1nc(-n2cc([C@]3(c4ccc(C(F)(F)F)cc4)CCCO3)cn2)cc(=O)[nH]1` (single isomer, unassigned) [Example 21], with 199 nM.
